The target of the assay is T1, full-length NS3/NS4A-2 (HCV NS3 protease) (Hepatitis C virus genotype 1a, UniProt P27958).
T1 construct: Recombinant E. coli or Baculovirus full-length NS3 was diluted to 3.33 μM with assay buffer; made in house; host or cells: E. coli or baculovirus (BV) expression system
The assay is described as follows: NS3-NS4 protease assay / NS3 inhibition assay (RETS1 substrate, fluorescence kinetic read). The format is biochemical. To be noted: recombinant E. coli or Baculovirus full-length NS3 with NS4A-2; read-out: NS3-NS4 IC50. A digest of the protocol:
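Full-length NS3 from E. coli (2 nM in assay) or baculovirus (3 nM) was precomplexed with excess NS4A-2 peptide, then preincubated 10 min at room temperature with serially diluted compounds starting at 50 microM. Reaction was started with RETS1 substrate at 8 μM before addition and read kinetically for 30 min (ex 335/em 495 nm). Four-parameter IC50s were converted to Ki by Cheng-Prusoff using Km 2.03 μM (E. coli) or 1.74 μM (BV).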

T1 sequence (P27958 1027-1657): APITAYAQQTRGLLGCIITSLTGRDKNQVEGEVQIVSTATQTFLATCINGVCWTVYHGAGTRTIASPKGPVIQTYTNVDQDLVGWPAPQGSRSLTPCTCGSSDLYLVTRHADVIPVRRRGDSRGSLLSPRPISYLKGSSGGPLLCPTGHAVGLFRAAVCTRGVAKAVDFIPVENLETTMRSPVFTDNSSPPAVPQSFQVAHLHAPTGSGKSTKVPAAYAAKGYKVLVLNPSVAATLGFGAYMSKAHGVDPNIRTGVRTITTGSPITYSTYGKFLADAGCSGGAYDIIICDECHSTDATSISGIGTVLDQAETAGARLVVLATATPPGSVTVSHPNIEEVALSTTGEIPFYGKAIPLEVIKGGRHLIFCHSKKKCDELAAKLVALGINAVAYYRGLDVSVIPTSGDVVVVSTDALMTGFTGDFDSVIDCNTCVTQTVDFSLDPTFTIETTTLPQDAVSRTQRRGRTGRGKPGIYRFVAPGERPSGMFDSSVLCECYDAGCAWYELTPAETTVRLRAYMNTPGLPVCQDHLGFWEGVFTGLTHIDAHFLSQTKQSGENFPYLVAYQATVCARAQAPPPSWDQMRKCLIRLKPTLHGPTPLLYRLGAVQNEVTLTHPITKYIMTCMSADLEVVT

For orientation: IC50 means the point on the concentration scale where inhibition reaches its midpoint. For `CC(C)(C)OC(=O)N[C@H]1CCCCCCC[C@@H]2C[C@@]2(C(=O)O)NC(=O)C2Cc3ccccc3CN2C1=O` (stereo partly drawn) [Compound 2011, (1aR,9S,19aR)-9-(tert-butoxycarbonyl)-10,18-dioxo-1a,2,3,4,5,6,7,8,9,10,12,17,17a,18,19,19a-hexadecahydro-1H-2,5-diaza-bicyclo[13.1.0]hexadec-1(15)-eno[5,4-b]isoquinoline-19a-carboxylic acid], the IC50 is greater than 10 µM.

With `CC(C)(C)OC(=O)NC1CCCCCCCC=CC2CC2(C(=O)NS(=O)(=O)c2ccccc2)NC(=O)C2CCCN2C1=O` (stereo not drawn) [Compound 2101], the IC50 was less than 10 µM.

As for `CC(C)(C)OC(=O)NC1CCCCCCCC=CC2CC2(C(=O)NS(=O)(=O)c2ccc([N+](=O)[O-])cc2)NC(=O)C2CCCN2C1=O` (stereo not drawn) [Compound 2102], the IC50 is less than 10 µM.

Turning to `CCCS(=O)(=O)NC(=O)C12CC1C=CCCCCCCCC(NC(=O)OC(C)(C)C)C(=O)N1CCCC1C(=O)N2` (stereo not drawn) [Compound 2105], the IC50 was less than 1 µM.

With `CC(C)(C)OC(=O)NC1CCCCCCCC=CC2CC2(C(=O)NS(=O)(=O)C(F)(F)F)NC(=O)C2CCCN2C1=O` (stereo not drawn) [Compound 2107], the IC50 was less than 1 µM.

As to `CC(C)(C)OC(=O)NC1CCCCCCCC=CC2CC2(C(=O)NS(=O)(=O)c2cc(Cl)cc(Cl)c2)NC(=O)C2CCCN2C1=O` (stereo not drawn) [Compound 2108], the IC50 is less than 10 µM.

With `CC(C)(C)OC(=O)N[C@H]1CCCCC/C=C\[C@@H]2C[C@@]2(C(=O)NS(=O)(=O)c2cccc(Cl)c2)NC(=O)[C@@H]2CCCN2C1=O` [Compound 2110], the IC50 was less than 10 µM.

With `CC(C)(C)OC(=O)N[C@H]1CCCCC/C=C\[C@@H]2C[C@@]2(C(=O)NS(=O)(=O)c2ccccc2Br)NC(=O)[C@@H]2CCCN2C1=O` [Compound 2111], the IC50 is less than 10 µM.

As for `CC(C)(C)OC(=O)N[C@H]1CCCCC/C=C\[C@@H]2C[C@@]2(C(=O)NS(=O)(=O)c2cccc(Br)c2)NC(=O)[C@@H]2CCCN2C1=O` [Compound 2112], the IC50 was less than 10 µM.

For `CC(C)(C)OC(=O)N[C@H]1CCCCC/C=C\[C@@H]2C[C@@]2(C(=O)NS(=O)(=O)c2cccc(F)c2)NC(=O)[C@@H]2CCCN2C1=O` [Compound 2113], the half-maximal inhibitory concentration (IC50) is less than 10 µM.

Consider `CC(C)(C)OC(=O)N[C@H]1CCCCC/C=C\[C@@H]2C[C@@]2(C(=O)NS(=O)(=O)c2ccc(F)cc2)NC(=O)[C@@H]2CCCN2C1=O` [Compound 2114], for which the IC50 is less than 10 µM.

On to `CC(C)(C)OC(=O)N[C@H]1CCCCC/C=C\[C@@H]2C[C@@]2(C(=O)NS(=O)(=O)c2c(Cl)cc(Cl)cc2Cl)NC(=O)[C@@H]2CCCN2C1=O` [Compound 2115], for which the IC50 was less than 0.1 µM.

As for `COc1cccc(S(=O)(=O)NC(=O)[C@@]23C[C@H]2/C=C\CCCCC[C@H](NC(=O)OC(C)(C)C)C(=O)N2CCC[C@H]2C(=O)N3)c1` [Compound 2116], the IC50 was less than 10 µM.

As to `CC(C)(C)OC(=O)N[C@H]1CCCCC/C=C\[C@@H]2C[C@@]2(C(=O)NS(=O)(=O)Cc2ccccc2Cl)NC(=O)[C@@H]2CCCN2C1=O` [Compound 2117], the IC50 was less than 1 µM.

As for `CC(C)(C)OC(=O)N[C@H]1CCCCC/C=C\[C@@H]2C[C@@]2(C(=O)NS(=O)(=O)Cc2cccc(Cl)c2)NC(=O)[C@@H]2CCCN2C1=O` [Compound 2118], the IC50 was less than 1 µM.

As for `CC(C)(C)OC(=O)N[C@H]1CCCCC/C=C\[C@@H]2C[C@@]2(C(=O)NS(=O)(=O)Cc2ccc(Cl)cc2)NC(=O)[C@@H]2CCCN2C1=O` [Compound 2119], the IC50 was less than 1 µM.

As to `CC(C)(C)OC(=O)N[C@H]1CCCCC/C=C\[C@@H]2C[C@@]2(C(=O)NS(=O)(=O)C2CCCC2)NC(=O)[C@@H]2CCCN2C1=O` [Compound 2120], the IC50 is less than 1 µM.

For `CC(C)(C)OC(=O)N[C@H]1CCCCC/C=C\[C@@H]2C[C@@]2(C(=O)NS(=O)(=O)C2CCCCC2)NC(=O)[C@@H]2CCCN2C1=O` [Compound 2121], the half-inhibitory concentration (IC50) was less than 1 µM.

For the molecule `COc1ccccc1S(=O)(=O)NC(=O)[C@@]12C[C@H]1/C=C\CCCCC[C@H](NC(=O)OC(C)(C)C)C(=O)N1CCC[C@H]1C(=O)N2` [Compound 2122], the IC50 was less than 1 µM.

Take `Cc1cc(Cl)cc(Cl)c1S(=O)(=O)NC(=O)[C@@]12C[C@H]1/C=C\CCCCC[C@H](NC(=O)OC(C)(C)C)C(=O)N1CCC[C@H]1C(=O)N2` [Compound 2123]: the half-inhibitory concentration (IC50) was less than 1 µM.

For `CC(C)(C)OC(=O)N[C@H]1CCCCC/C=C\[C@@H]2C[C@@]2(C(=O)NS(=O)(=O)c2ccccc2F)NC(=O)[C@@H]2CCCN2C1=O` [Compound 2124], the IC50 is less than 10 µM.

For `CC(C)(C)OC(=O)N[C@H]1CCCCC/C=C\[C@@H]2C[C@@]2(C(=O)NS(=O)(=O)/C=C/c2ccccc2)NC(=O)[C@@H]2CCCN2C1=O` [Compound 2125], the half-inhibitory concentration (IC50) was less than 1 µM.

Turning to `CC(C)(C)OC(=O)N[C@H]1CCCCC/C=C\[C@@H]2C[C@@]2(C(=O)NS(=O)(=O)c2cc(Cl)sc2Cl)NC(=O)[C@@H]2CCCN2C1=O` [Compound 2126], the IC50 was less than 10 µM.

For the molecule `CC(C)(C)OC(=O)N[C@H]1CCCCC/C=C\[C@@H]2C[C@@]2(C(=O)NS(=O)(=O)CCc2ccccc2)NC(=O)[C@@H]2CCCN2C1=O` [Compound 2127], the IC50 was less than 10 µM.

For `CC(C)(C)OC(=O)N[C@H]1CCCCC/C=C\[C@@H]2C[C@@]2(C(=O)NS(=O)(=O)c2ccc3ccccc3c2)NC(=O)[C@@H]2CCCN2C1=O` [Compound 2130], the IC50 is less than 10 µM.

In the case of `CC(C)(C)OC(=O)N[C@H]1CCCCC/C=C\[C@@H]2C[C@@]2(C(=O)NS(=O)(=O)c2ccc(Br)cc2)NC(=O)[C@@H]2CCCN2C1=O` [Compound 2131], the IC50 is less than 10 µM.

For the molecule `CC(C)(C)OC(=O)N[C@H]1CCCCC/C=C\[C@@H]2C[C@@]2(C(=O)NS(=O)(=O)c2ccc(Cl)s2)NC(=O)[C@@H]2CCCN2C1=O` [Compound 2132], the IC50 is less than 10 µM.

With `COc1ccc(S(=O)(=O)NC(=O)[C@@]23C[C@H]2/C=C\CCCCC[C@H](NC(=O)OC(C)(C)C)C(=O)N2CCC[C@H]2C(=O)N3)cc1` [Compound 2133], the IC50 is less than 10 µM.

Take `CC(C)(C)OC(=O)N[C@H]1CCCCC/C=C\[C@@H]2C[C@@]2(C(=O)NS(=O)(=O)c2ccc(C#N)cc2)NC(=O)[C@@H]2CCCN2C1=O` [Compound 2134]: the half-inhibitory concentration (IC50) was less than 1 µM.

As to `CC(C)(C)OC(=O)N[C@H]1CCCCC/C=C\[C@@H]2C[C@@]2(C(=O)NS(=O)(=O)Cc2ccccc2)NC(=O)[C@@H]2CCCN2C1=O` [Compound 2135], the IC50 was less than 1 µM.

As to `CC(C)(C)OC(=O)N[C@H]1CCCCC/C=C\[C@@H]2C[C@@]2(C(=O)NS(=O)(=O)c2cccs2)NC(=O)[C@@H]2CCCN2C1=O` [Compound 2136], the IC50 was less than 10 µM.

Take `CC(C)(C)CC(=O)N[C@H]1CCCCC/C=C\[C@@H]2C[C@@]2(C(=O)NS(=O)(=O)C2CC2)NC(=O)C2CCCN2C1=O` (stereo partly drawn) [Compound 2141]: the IC50 is less than 10 µM.

For `CC[C@@H]1C[C@H]2C(=O)N[C@]3(C(=O)NS(=O)(=O)C4CC4)C[C@H]3/C=C\CCCCC[C@H](NC(=O)OC(C)(C)C)C(=O)N2C1` [Compound 2145], the IC50 is greater than 10 µM.

As for `CC(C)C[C@@H]1C[C@H]2C(=O)N[C@]3(C(=O)NS(=O)(=O)C4CC4)C[C@H]3/C=C\CCCCC[C@H](NC(=O)OC(C)(C)C)C(=O)N2C1` [Compound 2147, (1S,4R,6S,14S,18R)-tert-Butyl 4-cyclopropylsulfonylaminocarbonyl-2,15-dioxo-3,16-diaza-18-(2-methylpropyl)-tricyclo[14.3.0.0^4,6]nonadec-7-ene-14-yl carbamate], the IC50 is greater than 10 µM.

In the case of `CC(C)(C)OC(=O)N[C@H]1CCCCC/C=C\[C@@H]2C[C@@]2(C(=O)NS(=O)(=O)c2cccc(C(F)(F)F)c2)NC(=O)[C@@H]2CCCN2C1=O` [Compound 2149], the IC50 was less than 10 µM.

As for `CC(C)(C)OC(=O)N[C@H]1CCCCC/C=C\[C@@H]2C[C@@]2(C(=O)NS(=O)(=O)c2cc(Cl)ccc2F)NC(=O)[C@@H]2CCCN2C1=O` [Compound 2150], the IC50 was less than 10 µM.

For the molecule `CC(C)(C)OC(=O)N[C@H]1CCCCC/C=C\[C@@H]2C[C@@]2(C(=O)NS(=O)(=O)c2cccc(Cl)c2F)NC(=O)[C@@H]2CCCN2C1=O` [Compound 2151], the IC50 was less than 1 µM.

For `CC(C)(C)OC(=O)N[C@H]1CCCCC/C=C\[C@@H]2C[C@@]2(C(=O)NS(=O)(=O)c2cccc(C#N)c2)NC(=O)[C@@H]2CCCN2C1=O` [Compound 2152], the IC50 was less than 10 µM.

Regarding `CC(C)(C)OC(=O)N[C@H]1CCCCC/C=C\[C@@H]2C[C@@]2(C(=O)NS(=O)(=O)c2cnc(Cl)c(Br)c2)NC(=O)[C@@H]2CCCN2C1=O` [Compound 2154], the IC50 was less than 10 µM.

Take `CC(C)(C)OC(=O)N[C@H]1CCCCC/C=C\[C@@H]2C[C@@]2(C(=O)NS(=O)(=O)NC2CC2)NC(=O)[C@@H]2CCCN2C1=O` [Compound 2201]: the IC50 is less than 1 µM.

Consider `CN(C)S(=O)(=O)NC(=O)[C@@]12C[C@H]1/C=C\CCCCC[C@H](NC(=O)OC(C)(C)C)C(=O)N1CCC[C@H]1C(=O)N2` [Compound 2202], for which the IC50 is less than 10 µM.

In the case of `CC(C)(C)OC(=O)N[C@H]1CCCCC/C=C\[C@@H]2C[C@@]2(C(=O)NS(N)(=O)=O)NC(=O)[C@@H]2CCCN2C1=O` [Compound 2203], the IC50 is less than 1 µM.

With `CC(C)(C)OC(=O)N[C@H]1CCCCC/C=C\[C@@H]2C[C@@]2(C(=O)NS(=O)(=O)N2CCOCC2)NC(=O)[C@@H]2CCCN2C1=O` [Compound 2204], the IC50 was less than 1 µM.

As to `CC(C)(C)OC(=O)N[C@H]1CCCCC/C=C\[C@@H]2C[C@@]2(C(=O)NS(=O)(=O)NC2CCCCC2)NC(=O)[C@@H]2CCCN2C1=O` [Compound 2205], the IC50 was less than 1 µM.

Regarding `CC(C)(C)OC(=O)N[C@H]1CCCCC/C=C\[C@@H]2C[C@@]2(C(=O)NS(=O)(=O)N2CCC2)NC(=O)[C@@H]2CCCN2C1=O` [Compound 2206], the IC50 is less than 10 µM.
